Here are results for three compounds from patent US9567306B2, “Inhibition of macrophage migration inhibitory factor in melanoma and colon cancer” (THE FEINSTEIN INSTITUTE FOR MEDICAL RESEARCH, priority 2014, dated 2017).

One series has as its system B16 tumor. Particulars: 80 mg/kg (Yaddanapudi et al.); cited from earlier work.
A further series has as its system CT-26 colon tumors. The conditions noted are these: administered twice per week (He et al.); cited from earlier work.
The target of another series is T1, MIF (Homo sapiens, UniProt P14174).
T1 sequence (P14174 2-115 limits assumed): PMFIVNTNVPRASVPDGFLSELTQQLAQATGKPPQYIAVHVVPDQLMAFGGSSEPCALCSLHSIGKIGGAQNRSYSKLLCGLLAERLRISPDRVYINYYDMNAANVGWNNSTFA
Put plainly: MIF tautomerase inhibition assay (L-dopachrome methyl ester). Format: biochemical.

The nature of the next series: Solubility comparison. Format: physicochemical. Particulars: relative to ISO-66.
The nature of series [1]: Stability in buffer (decarboxylation, mass spectrometry). In kind it is physicochemical. The conditions noted are these: upon formulation in buffer; by mass spectrometry.

Each structure is given as a SMILES string. “Also recorded” adds a separate entry of the source.

Procedure for MIF: MIF tautomerase inhibition assay: MIF tautomerase activity was measured using a UV-Visible spectrophotometer (SHIMADZU, UV1600U). A fresh stock solution of L-dopachrome methyl ester was prepared at 2.4 mM through oxidation of L-3,4-dihydroxyphenylalanine methyl ester with sodium periodate. 1 μL of MIF solution (800-900 μg/mL) and 1 μL of a dimethyl sulfoxide (DMSO) solution with various concentrations of the MIF inhibitor were added into a plastic cuvette (10 mm, 1.5 mL) containing 0.7 mL assay buffer (50 mM potassium phosphate, pH 7.2). Then, activated L-dopachrome methyl ester solution (0.3 mL) was added to the assay buffer mixture. Activity was determined at room temperature and spectrometric measurements were made every 5 sec at λ, =475 nm for total 20 sec, by monitoring the rate of decolorization of L-dopachrome in comparison to a standard solution.

As to `Ic1cc(-c2ccccc2)ncn1` [4-IPP], in the series on B16 tumor, the “effect on rate of B16 tumor growth” value is “significantly slowed the rate of B16 tumor growth”.
For the compound `COC(=O)CC1CC(c2ccc(O)cc2)=NO1` (centres unmarked) [ISO-1], the “inhibition of CT-26 colon tumors” value in the series on CT-26 colon tumors was 25%.
What is called IC50 is the concentration at which inhibition is half-maximal. Read a low IC50 as greater potency. On MIF, `O=C(O)CC(=O)CC1CC(c2ccc(O)c(F)c2)=NO1` (centres unmarked) [KF III 53Y] yielded an IC50 of 1.8 µM. The solubility result in “Solubility comparison” is on record as “better solubility than ISO-66”. Further, the “stability (decarboxylation to ISO-66)” value in series [1] is reported as “spontaneously decarboxylates to form ISO-66; also recorded: undergoes fast decarboxlyation to form ISO-66; also recorded: spontaneously decarboxylated non-enzymatically”.
